Measured values: PubChem BioAssay (NCI)
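Tested at 5 concentrations; 48 h exposure; 96-well plates; endpoints linearly interpolated, else capped at highest concentration. TGI marks complete inhibition of growth.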

Key:
Assay in all cases: growth of human tumour cells (NCI), 48 h
786-0 renal = tested on: 786-0 renal
A498 renal = tested on: A498 renal
HCT-116 colon = tested on: HCT-116 colon
HCT-15 colon = tested on: HCT-15 colon
HL-60(TB) leukemia = tested on: HL-60(TB) leukemia
HOP-62 NSCLC = tested on: HOP-62 NSCLC
IGROV1 ovarian = tested on: IGROV1 ovarian
KM12 colon = tested on: KM12 colon
MDA-MB-231 breast = tested on: MDA-MB-231 breast
NCI-H522 lung = tested on: NCI-H522 lung
NCI/ADR-RES ovarian = tested on: NCI/ADR-RES ovarian
SF-268 CNS = tested on: SF-268 CNS
SK-MEL-2 melanoma = tested on: SK-MEL-2 melanoma
SK-MEL-5 melanoma = tested on: SK-MEL-5 melanoma
SK-OV-3 ovarian = tested on: SK-OV-3 ovarian
SNB-19 CNS = tested on: SNB-19 CNS
SR leukemia = tested on: SR leukemia
SW-620 colon = tested on: SW-620 colon
TK-10 renal = tested on: TK-10 renal

`CCOC(=O)C(SCCO)C(C(=O)OCC)n1cnc2c(N)ncnc21` (stereo unspecified) showed a TGI (786-0 renal) of 12.2 µM, a TGI (A498 renal) of 19.2 µM and a TGI (HCT-116 colon) of 22.2 µM. It also gave a TGI (HCT-15 colon) of 22.5 µM, a TGI (HL-60(TB) leukemia) of 5.46 µM and a TGI (HOP-62 NSCLC) of 45.4 µM. The TGI (IGROV1 ovarian) was 36.5 µM, the TGI (KM12 colon) was 35.2 µM and the TGI (MDA-MB-231 breast) was 32.7 µM. For the same compound, the TGI (NCI-H522 lung) was 19.1 µM, the TGI (NCI/ADR-RES ovarian) was 56.7 µM and the TGI (SF-268 CNS) was 35.9 µM. It also gave a TGI (SK-MEL-2 melanoma) of 24.4 µM, a TGI (SK-MEL-5 melanoma) of over 58 µM and a TGI (SK-OV-3 ovarian) of over 100 µM. It also gave a TGI (SNB-19 CNS) of over 69.1 µM, a TGI (SR leukemia) of 14.5 µM and a TGI (SW-620 colon) of 12.5 µM. For the same compound, the TGI (TK-10 renal) was 28.3 µM.
`Nc1nc(Cl)c(N)c(NCC2(CO)CCC2)n1` was tested, and the TGI (786-0 renal) was over 100 µM, the TGI (A498 renal) was over 100 µM and the TGI (HCT-116 colon) was over 100 µM. It also gave a TGI (HCT-15 colon) of over 100 µM, a TGI (HL-60(TB) leukemia) of over 100 µM and a TGI (HOP-62 NSCLC) of over 100 µM. For the same compound, the TGI (IGROV1 ovarian) was over 100 µM, the TGI (KM12 colon) was over 100 µM and the TGI (MDA-MB-231 breast) was over 100 µM. For the same compound, the TGI (NCI-H522 lung) was over 100 µM, the TGI (NCI/ADR-RES ovarian) was over 100 µM and the TGI (SF-268 CNS) was over 100 µM. The TGI (SK-MEL-2 melanoma) was over 100 µM, the TGI (SK-MEL-5 melanoma) was over 100 µM and the TGI (SK-OV-3 ovarian) was over 100 µM. It also gave a TGI (SNB-19 CNS) of over 100 µM, a TGI (SR leukemia) of over 100 µM and a TGI (SW-620 colon) of over 100 µM. The TGI (TK-10 renal) was over 100 µM.
Compound `CN1C2CCC1CC(CCOC(c1ccc(F)cc1)c1ccc(F)cc1)C2` (stereo unspecified) has a TGI (786-0 renal) of 30.7 µM, a TGI (A498 renal) of 36.1 µM and a TGI (HCT-116 colon) of 27.4 µM. For the same compound, the TGI (HCT-15 colon) was 32.3 µM, the TGI (HL-60(TB) leukemia) was 34.9 µM and the TGI (HOP-62 NSCLC) was 30.9 µM. The TGI (IGROV1 ovarian) was 32.1 µM, the TGI (KM12 colon) was 30.8 µM and the TGI (MDA-MB-231 breast) was 29.7 µM. For the same compound, the TGI (NCI-H522 lung) was 31.9 µM, the TGI (NCI/ADR-RES ovarian) was 36.5 µM and the TGI (SF-268 CNS) was 29.2 µM. The TGI (SK-MEL-2 melanoma) was 31.4 µM, the TGI (SK-MEL-5 melanoma) was 21.3 µM and the TGI (SK-OV-3 ovarian) was 31.2 µM. For the same compound, the TGI (SNB-19 CNS) was 41.6 µM, the TGI (SR leukemia) was 38.2 µM and the TGI (SW-620 colon) was 41.8 µM. It also gave a TGI (TK-10 renal) of 28.8 µM.
In the case of `COC(=O)C(Cc1c[nH]c2ccccc12)N=C1Nc2ccncc2S(=O)(=O)N1c1ccccc1` (stereo unspecified), the TGI (786-0 renal) is reported as over 100 µM, the TGI (A498 renal) is reported as over 100 µM and the TGI (HCT-116 colon) is reported as over 100 µM. The TGI (HCT-15 colon) was over 100 µM, the TGI (HL-60(TB) leukemia) was 0.727 µM and the TGI (HOP-62 NSCLC) was over 100 µM. The TGI (IGROV1 ovarian) was 98.7 µM, the TGI (KM12 colon) was over 100 µM and the TGI (MDA-MB-231 breast) was over 100 µM. It also gave a TGI (NCI-H522 lung) of over 100 µM, a TGI (NCI/ADR-RES ovarian) of over 100 µM and a TGI (SF-268 CNS) of over 100 µM. For the same compound, the TGI (SK-MEL-2 melanoma) was 68.5 µM, the TGI (SK-MEL-5 melanoma) was 30 µM and the TGI (SK-OV-3 ovarian) was over 100 µM. For the same compound, the TGI (SNB-19 CNS) was over 100 µM, the TGI (SR leukemia) was 42.1 µM and the TGI (SW-620 colon) was 99.3 µM. It also gave a TGI (TK-10 renal) of over 100 µM.
